This is an account of results in ChEMBL document CHEMBL1201862, “PubChem BioAssay data set” (2004).

One data set addresses Cytochrome P450 3A4 (Homo sapiens, UniProt P08684).
Data set [1] in a line: NIH3T3 cell viability loss – ATP luminescence, mouse fibroblasts, counter-screen, dose response (AID 2010).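 Also: cells exposed to compound for about 90 hours before reading.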 It counts as functional, cell-based.
Data set [2] is described as follows: Trypanosoma cruzi growth suppression in host cells – NIH3T3 host cells, beta-gal luminescence, confirmation (AID 2044).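 Also: intracellular parasites grown in NIH/3T3 mouse fibroblasts as host cells; luminescent beta-galactosidase reporter signal from transgenic T. cruzi replicating inside host cells; inhibitors lower the luminescence signal.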 It counts as functional, cell-based.
In another data set the target is Cytochrome P450 2C9 (Homo sapiens, UniProt P11712).
Sequence of Cytochrome P450 2C9 (P11712 whole entry): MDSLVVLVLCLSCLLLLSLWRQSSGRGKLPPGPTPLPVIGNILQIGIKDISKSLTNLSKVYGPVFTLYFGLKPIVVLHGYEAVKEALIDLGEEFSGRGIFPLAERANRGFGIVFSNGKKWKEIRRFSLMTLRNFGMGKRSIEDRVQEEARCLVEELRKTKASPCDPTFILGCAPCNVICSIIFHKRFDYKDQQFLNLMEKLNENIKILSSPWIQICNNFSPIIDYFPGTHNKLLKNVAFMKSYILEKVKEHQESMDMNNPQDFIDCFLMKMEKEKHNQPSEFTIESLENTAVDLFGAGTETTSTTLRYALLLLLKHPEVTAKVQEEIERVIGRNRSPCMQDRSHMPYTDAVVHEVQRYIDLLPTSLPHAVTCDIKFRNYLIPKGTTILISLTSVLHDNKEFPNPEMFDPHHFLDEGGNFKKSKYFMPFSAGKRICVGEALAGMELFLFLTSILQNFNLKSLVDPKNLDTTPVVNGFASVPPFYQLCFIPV
The next data set concerns Streptococcus. Description: GAS UMAA2166 growth inhibition – luminescence, BacTiterGlo, counter-screen for streptokinase expression inhibitor project, dose response (AID 1915).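 Also: potency for reduction of bacterial viability or growth.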 It counts as functional, organism-based.
The test system of data set [3] is Streptococcus sp. 'group A'. In words: Streptococcus pyogenes SK(-)GAS viability under kanamycin – luminescence, BacTiterGlo, confirmation, counter-screen for streptokinase expression inhibitor project, dose response (AID 1900). The format is functional, organism-based.
Another data set relates to H4. In words: Luminescence Cell-Based Dose Response HTS to Identify Activators of 5'UTR Stem-Loop Driven Prion Protein mRNA Translation in H4 Neuroglioblastoma Cells. [Related pubchem assays: 1829 (Project Summary), 1814 (Primary HTS)]. It counts as functional. The note with it: Homo sapiens.
Data set [4] is described as follows: Luminescence Cell-Based Dose Response HTS to Identify Activators of Luciferase Translation or Activity in H4 […] Cells. [Related pubchem assays: 1829 (Project Summary), 1814 (Primary HTS)]. It counts as functional.
The target of a further data set is Cytochrome P450 2C19 (Homo sapiens, UniProt P33261). Description: Cytochrome panel assay with activity outcomes. Panel member name: p450-cyp2c19 Compounds with AC50 equal or less than 10 uM are considered active. The format is functional.
Sequence of Cytochrome P450 2C19 (P33261 whole entry): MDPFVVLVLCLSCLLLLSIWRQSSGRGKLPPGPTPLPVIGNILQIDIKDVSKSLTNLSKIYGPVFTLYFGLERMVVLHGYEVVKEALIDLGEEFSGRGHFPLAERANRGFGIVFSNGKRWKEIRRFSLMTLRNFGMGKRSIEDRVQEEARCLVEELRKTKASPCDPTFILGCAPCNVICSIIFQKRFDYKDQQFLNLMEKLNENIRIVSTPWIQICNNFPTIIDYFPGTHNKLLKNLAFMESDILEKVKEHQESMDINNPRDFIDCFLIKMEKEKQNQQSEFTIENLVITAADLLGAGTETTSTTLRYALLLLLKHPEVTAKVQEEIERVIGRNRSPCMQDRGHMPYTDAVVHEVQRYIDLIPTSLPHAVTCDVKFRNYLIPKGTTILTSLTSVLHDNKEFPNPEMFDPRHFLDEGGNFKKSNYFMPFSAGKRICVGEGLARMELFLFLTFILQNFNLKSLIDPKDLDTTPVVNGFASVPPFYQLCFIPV
The target of data set [5] is T1, Corticotropin-releasing factor receptor 2/Corticotropin-releasing factor-binding protein (Homo sapiens, UniProt P24387+Q13324).
T1 sequence (Q13324 whole entry): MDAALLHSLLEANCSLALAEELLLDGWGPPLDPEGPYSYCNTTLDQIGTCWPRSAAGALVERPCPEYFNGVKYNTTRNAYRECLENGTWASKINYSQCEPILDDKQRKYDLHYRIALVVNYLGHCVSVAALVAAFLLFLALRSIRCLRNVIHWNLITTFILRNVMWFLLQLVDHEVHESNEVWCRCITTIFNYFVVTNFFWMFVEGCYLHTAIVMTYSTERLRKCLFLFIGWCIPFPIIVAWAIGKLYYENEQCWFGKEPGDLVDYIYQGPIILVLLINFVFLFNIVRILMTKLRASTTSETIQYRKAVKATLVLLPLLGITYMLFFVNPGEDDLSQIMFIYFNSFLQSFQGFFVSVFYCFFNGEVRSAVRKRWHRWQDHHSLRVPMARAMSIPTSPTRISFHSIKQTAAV
T1 sequence (P24387 whole entry): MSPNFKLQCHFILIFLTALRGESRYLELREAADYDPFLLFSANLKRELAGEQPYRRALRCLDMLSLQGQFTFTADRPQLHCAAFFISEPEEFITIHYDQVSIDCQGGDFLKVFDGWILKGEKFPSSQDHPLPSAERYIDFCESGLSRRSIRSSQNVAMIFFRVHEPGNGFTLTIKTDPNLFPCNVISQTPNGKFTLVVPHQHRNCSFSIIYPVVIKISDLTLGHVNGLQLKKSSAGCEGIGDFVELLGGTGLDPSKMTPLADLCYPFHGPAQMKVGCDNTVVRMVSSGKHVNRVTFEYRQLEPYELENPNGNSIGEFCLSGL
Description: activators of CRF receptor 2 with binding protein – uHTS hits, confirmation (AID 602473). The format is functional. The note with it: read-out: EC50_Mean.

“And” between values parts separate entries of the source, which are not always exact repeats. Identical values can stand only once. The source made the active and inactive calls.

Sequence of Cytochrome P450 3A4 (P08684 whole entry): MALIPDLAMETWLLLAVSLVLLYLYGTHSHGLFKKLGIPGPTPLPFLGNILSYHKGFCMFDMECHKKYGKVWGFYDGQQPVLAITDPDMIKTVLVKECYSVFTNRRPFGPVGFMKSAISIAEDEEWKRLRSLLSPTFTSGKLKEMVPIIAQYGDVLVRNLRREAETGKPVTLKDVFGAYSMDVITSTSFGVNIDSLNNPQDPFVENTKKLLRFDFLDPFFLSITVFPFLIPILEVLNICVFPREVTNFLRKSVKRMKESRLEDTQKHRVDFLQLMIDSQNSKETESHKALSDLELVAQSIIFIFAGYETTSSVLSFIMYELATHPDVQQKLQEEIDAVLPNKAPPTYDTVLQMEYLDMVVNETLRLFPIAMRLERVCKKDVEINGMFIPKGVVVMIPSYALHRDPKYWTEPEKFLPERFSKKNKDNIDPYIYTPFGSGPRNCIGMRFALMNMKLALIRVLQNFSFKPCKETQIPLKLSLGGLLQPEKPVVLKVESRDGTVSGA

In the case of `CC12CS(=O)(=O)CC1SC(=S)N2c1ccccn1` (stereo not given), the AC50 at Cytochrome P450 3A4 is 17.8 µM (inconclusive).

Turning to `CN(C)CCn1c(=O)n(Cc2ccco2)c(=O)c2c3c(sc21)CCCCC3`, the EC50 is > 60 µM (not active) in data set [1] and 0.196 µM (active) in [2]. The half-maximal activity concentration (AC50) at Cytochrome P450 3A4 is 12.6 µM (inconclusive).

For `COc1ccccc1CCn1c(=O)c(C)nc2cncnc21`, the AC50 on Cytochrome P450 2C9 was 31.6 µM (inconclusive).

In the case of `COc1ccc(C(C(=O)NC2CCCC2)N(C(=O)c2snc(-c3ccc(F)cc3)c2N)c2ccccc2)cc1` (stereo not given), the half-maximal activity concentration (AC50) at Cytochrome P450 2C9 is 0.891 µM (inconclusive).

With `Cc1cccc(CN2CCN(CCCc3ccccc3)CC2)c1`, the EC50 in [1] is > 60 µM (not active); in data set [2], 0.478 µM (active).

Turning to `COc1cc(-c2cc(-c3ccccc3)nc(SCC(=O)Nc3nccs3)c2C#N)cc(OC)c1OC`, the results for the EC50 in [1] and in data set [2] were > 30 µM (not active) and 1.72 µM (active), respectively.

For the compound `COc1cccc(C2c3c(C)nn(-c4ccc([N+](=O)[O-])cc4)c3N=C3C(=O)Nc4ccccc4N32)c1` (stereo not given), the EC50 in data set [1] was > 60 µM (not active); in [2] it was 1.87 µM (active).

For the compound `c1ccc(CCn2nnnc2C(c2cccnc2)N2CCN(c3nc4ccccc4s3)CC2)cc1` (stereo not given), the EC50 in [1] was 31.2 µM (active); in [2], 0.244 µM (active).

As to `COc1ccc(/C=C/c2ccc3cccc(O)c3n2)c(OC)c1OC`, the EC50 in the data set with Streptococcus is 6.25 µM (active); in [3], 4.85 µM (active).

On to `C[C@@H](C(=O)NC1CCN(Cc2ccccc2)CC1)N1C(=O)N2CCc3c([nH]c4ccccc34)[C@@]2(C)C1=O`, for which the EC50 is > 60 µM (not active) in data set [1] and 0.299 µM (active) in data set [2].

As to `CC(C)(C)CC(=O)NC(=S)Nc1ccccc1C(F)(F)F`, the AC50 on Cytochrome P450 3A4 was 22.4 µM (inconclusive).

On to `CO[C@@H]1COC(=O)C/C=C\[C@@H](C)COC(=O)[C@H](COCc2ccccc2)NC(=O)C/C=C\[C@H]1C`, for which, on Cytochrome P450 3A4, the AC50 is 3.98 µM (inconclusive).

As to `CCCc1ccc2oc(C(=O)N3CCC[C@H]3CO)c(C)c2c1`, the EC50 in the data set on H4 was > 120 µM (not active); in data set [4] it was 1.11 µM (active).

Consider `CCOc1cc(/C=C2\N=C(C)OC2=O)cc(Br)c1OCC(=O)OC`, for which, at Cytochrome P450 2C9, the AC50 is 25.1 µM (inconclusive).

As to `CC(C)(C)NC(=O)NC(=O)CSc1nnc2ccccn12`, the AC50 at Cytochrome P450 2C9 is 17.8 µM (inconclusive).

Turning to `Cc1ccc(NC(=O)NNS(=O)(=O)c2ccc(Br)cc2)cc1`, on Cytochrome P450 2C9, the AC50 is 1 µM (inconclusive).

As to `O=c1c(-c2ccccc2)nc2cncnc2n1Cc1ccccc1Cl`, the AC50 on Cytochrome P450 2C19 (read-out: AC50) was 7.94 µM (inconclusive); at Cytochrome P450 2C9 it was 3.16 µM (inconclusive).

For `O=C(Nc1nc(-c2ccccc2)cs1)C1CCCN(S(=O)(=O)c2cccc([N+](=O)[O-])c2)C1` (stereo not given), the EC50 in data set [1] was > 60 µM (not active); in data set [2], 0.173 µM (active).

On to `O=C(Nc1ccc(N2CCOCC2)c(Cl)c1)c1ccc(Br)o1`, for which, in data set [4], the EC50 is 0.113 µM (active).

Turning to `COc1ccc([C@@H](Nc2ccccn2)c2cc(C(C)(C)C)cc(C(C)(C)C)c2O)cc1`, on Cytochrome P450 3A4, the half-maximal activity concentration (AC50) is 2 µM (inconclusive).

On to `O=C(Cc1ccccc1)NC(=S)Nc1ccc2oc(-c3ccccc3F)nc2c1`, for which the EC50 in data set [4] was 3.01 µM (active).

For the compound `CCOC(=O)C1=C(c2ccccc2)Nc2ncnn2C1c1ccc(OC)c(OC)c1OC` (stereo not given), the EC50 in [1] was > 60 µM (not active); in data set [2] it was 1.84 µM (active).

On to `Fc1ccc(COc2cccc(CNCc3ccncc3)c2)cc1`, for which the EC50 in data set [1] is > 60 µM (not active); in data set [2], 6.99 µM (active).

As for `Oc1c(N=NC(S)=Nc2ccccc2F)c2ccccc2n1Cc1ccc(Cl)cc1`, the EC50 in data set [1] was 5.85 µM (active); in data set [2], 1.06 µM (active).

For the compound `COc1ccccc1N(CC(O)Cn1c2ccccc2c2ccccc21)S(=O)(=O)c1ccccc1` (stereo not given), the EC50 in data set [1] was > 60 µM (not active); in data set [2], 2.21 µM (active).

Turning to `COc1ccccc1-c1nc(NCc2cccs2)c2ccccc2n1`, at Cytochrome P450 2C19 (read-out: AC50), the concentration at half-maximal activity (AC50) is 20 µM (inconclusive).

For `Cc1cccc(N(CC(=O)NCCSCc2ccco2)S(=O)(=O)c2ccccc2)c1`, on Cytochrome P450 3A4, the AC50 was 3.55 µM (inconclusive).

As to `CCC1=NN(C(=O)CCc2ccccc2)C(O)(C(F)(F)F)C1` (stereo not given), the AC50 at Cytochrome P450 3A4 was 15.8 µM (inconclusive).

Regarding `Cc1cc(C)c2cc(CN(Cc3cccnc3)C(=O)c3ccc(F)cc3)c(Cl)nc2c1`, the EC50 in data set [1] was 5.07 µM (active); in data set [2], 1.08 µM (active).

With `C=C1C(O)(c2ccccc2)C2CC[N+]1(C)CC2.[Cl-]` (stereo not given), the AC50 entry was “inconclusive” on Cytochrome P450 2C19 and 3.16 µM (inconclusive) at Cytochrome P450 3A4.

`CC(C)OCCCN1C(=O)c2ccccc2C1C(=O)NC1CCCCC1` (stereo not given): the values for the concentration at half-maximal activity (AC50) at Cytochrome P450 2C19 (read-out: AC50) and on Cytochrome P450 2C9 were 35.5 µM (inconclusive) and 7.08 µM (inconclusive), respectively.

As to `CCCCCCNC=C1C(=O)N(C)C(=O)N(C)C1=O`, the results for the AC50 on Cytochrome P450 2C19 (read-out: AC50) and on Cytochrome P450 2C9 were 15.8 µM (inconclusive) and 14.1 µM (inconclusive), respectively.

Consider `CCn1c(SCC(=O)NC2CCCc3ccccc32)nnc1-c1cccs1` (stereo not given), for which the concentration at half-maximal activity (AC50) at Cytochrome P450 2C9 is 4.47 µM (inconclusive).

As for `COc1ccc(CCn2c(-c3cc([N+](=O)[O-])cc([N+](=O)[O-])c3)nc3nc4ccccc4nc32)cc1`, the results for the EC50 in data set [1] and in data set [2] were > 60 µM (not active) and 0.157 µM (active), respectively.

For the compound `O=c1c(-c2ccc(F)cc2)nc2cnc(N3CCNCC3)nc2n1-c1ccccc1`, the AC50 result on Cytochrome P450 2C19 is “inconclusive”; on Cytochrome P450 3A4, 25.1 µM (inconclusive).

Take `COc1ccc(-c2csc3ncnc(N4CCN(S(=O)(=O)c5cccc(Br)c5)CC4)c23)cc1`: the EC50 in [1] was > 60 µM (not active); in data set [2], 1.71 µM (active).

Regarding `O=C(Nc1cccc(-c2cnc3ccccc3n2)c1)c1ccc(Cl)cc1`, the AC50 at Cytochrome P450 2C9 was 1.78 µM (inconclusive); at Cytochrome P450 3A4, 3.55 µM (inconclusive).

In the case of `Nc1nc(-c2cccs2)cs1`, the AC50 on Cytochrome P450 2C19 (read-out: AC50) is 3.98 µM (inconclusive) and 39.8 µM (inconclusive); at Cytochrome P450 3A4, 3.98 µM (inconclusive) and 25.1 µM (inconclusive).

With `Cc1cc(C)c(C#N)c(SCC(=O)C(C)(C)C)n1`, the EC50 in data set [1] is > 60 µM (not active); in [2], 1.96 µM (active).

As to `CCOc1ccc(CNC(=O)C2CC(=O)N(C3CCCC3)C2)cc1OC` (stereo not given), the AC50 at Cytochrome P450 2C19 (read-out: AC50) was 39.8 µM (inconclusive); at Cytochrome P450 3A4, 25.1 µM (inconclusive).

Take `Cc1nc2ncnn2c(C)c1CCC(=O)Nc1ccc(S(=O)(=O)N2CCCCCC2)cc1`: the AC50 at Cytochrome P450 3A4 was 39.8 µM (inconclusive).

As for `COc1ccc([C@H]2/C=C\CN(S(=O)(=O)c3ccc4ccccc4c3)[C@@H](C)C(=O)N2Cc2ccc(F)cc2)cc1`, the EC50 in [1] is > 60 µM (not active); in [2] it was 2.03 µM (active).

Take `COc1ccc(-c2nc3cnc(OCc4ccccc4)nc3n(CCC#N)c2=O)cc1`: at Cytochrome P450 3A4, the AC50 was 10 µM (inconclusive).

Consider `C/C(=N/O)c1ccc2cc(Br)c3ccccc3c2c1`, for which the AC50 at Cytochrome P450 2C19 (read-out: AC50) is 1 µM (inconclusive).

Consider `CCOC(=O)c1cc2c(=O)n3ccccc3nc2n(CCCOC)/c1=N\C(C)=O`, for which the concentration at half-maximal activity (AC50) at Cytochrome P450 2C9 was 20 µM (inconclusive).

As for `CC(NC(=O)C1(C)CC1(Br)Br)C(C)(C)C` (stereo not given), at Cytochrome P450 3A4, the AC50 was 14.1 µM (inconclusive).

With `COc1ccc(-c2nnc3n2N=C(C)CS3)cc1`, the AC50 on Cytochrome P450 2C19 (read-out: AC50) was 25.1 µM (inconclusive); on Cytochrome P450 2C9, 20 µM (inconclusive).

Consider `O=C(O)CNC1=NC2(CCCC2)Cc2ccccc21`, for which the half-maximal activity concentration (AC50) entry on Cytochrome P450 2C19 is listed as “inconclusive”.

With `Cc1ccc2[nH]c(C(=O)N/N=C/c3ccccc3C(=O)O)c(-c3ccccc3)c2c1`, the EC50 in data set [5] was 5.26 µM (active).

On to `Cc1ccccc1/C=N\NC(=O)c1csnn1`, for which, on Cytochrome P450 2C19 (read-out: AC50), the AC50 is 11.2 µM (inconclusive).

In the case of `c1ccc2sc(C3(N4CCCCC4)CCCCC3)cc2c1`, the AC50 on Cytochrome P450 3A4 was 15.8 µM (inconclusive) and 25.1 µM (inconclusive).

For `NC[C@H](O)c1cc(O)c(O)cc1F`, on Cytochrome P450 3A4, the concentration at half-maximal activity (AC50) was 31.6 µM (inconclusive).
